Test results reported in PubChem BioAssay (NCI).
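Briefly, cells in 96-well plates were exposed to five compound concentrations for 48 h, and endpoints were estimated by linear interpolation. Here, GI50 denotes the concentration required for 50% inhibition of growth. TGI denotes the concentration required for complete inhibition of growth.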

system: NCI-H226 lung; assay: NCI anticancer screen, dose series, 48 h

SMILES | TGI [µM]
CN1CCCC2C(c3ccccc3)C(C3=NCCCC3)C(c3ccccc3)CC21 (configuration not stated) | > 100

system: NCI/ADR-RES ovarian; assay: NCI anticancer screen, dose series, 48 h

SMILES | TGI [µM] | GI50 [µM]
C[C@]12CC[C@H]3[C@@H](CCC4=CC(=O)CC[C@@H]43)[C@@H]1CC[C@]2(O)C(N)=O | > 100 | 
COC(=O)C1C2OC(C)(C)OC2CN1S(=O)(=O)c1ccc(C)cc1 (configuration not stated) | > 100 | 
[O-][n+]1nc(N2CCOCC2)nc2ccccc21 | > 100 | 
O=C1CSC(c2ccccc2)N1c1nc2cc3sc(N4C(=O)CSC4c4ccccc4)nc3cc2s1 (configuration not stated) | > 100 | 
Cc1sc2nc(N(C)C)oc(=O)c2c1C | > 100 | 
Cc1nc(N)c(N2CCN(S(N)(=O)=O)CC2)c(=O)[nH]1 | > 100 | 
CC(C)OC(=O)c1ccc(NCC2=CC(=O)C=CC2=O)cc1 | 30.7 | 
CC(C)C[C@H]1[C@@H](OCc2ccccc2)COS(=O)(=O)N1[C@H](C)c1ccccc1 | > 100 | 
CN1CCC23c4c5ccc(Oc6nnnn6-c6ccccc6)c4OC2c2[nH]c4ccccc4c2CC3(O)C1C5 (configuration not stated) | 19.7 | 
COC(=O)c1ccccc1/C=C1\Cc2c(C)c3c(c(C)c2C1=O)CCC3 | > 100 | 
O=C1c2ccccc2-c2nnc(-c3ccc([N+](=O)[O-])cc3)cc21 | > 10 | 
Cn1c(-c2cccs2)cc(-c2cccs2)c1-c1cccs1 | > 100 | 
COc1cc2c(/C=C3/C(=O)Nc4ccc(O)cc43)c(Cl)n(Cc3ccccc3)c2cc1C | 2.6 | 
CCSc1nnc(Sc2c3ccccc3nc3ccccc23)s1 | > 64.2 | 
O=C(CC(O)(C(F)(F)F)C(F)(F)F)C(c1ccccc1)C(O)(C(F)(F)F)C(F)(F)F (configuration not stated) | > 100 | 
CCOC(=O)CC[C@H](N)C(=O)N[C@@H](Cc1ccc(N(CCCl)CCCl)cc1)C(=O)OCC | 21.1 | 3.7
CC(C)CCCC(C)[C@H]1CC[C@H]2n3c(nnc3-c3ccccc3)CCC[C@]12C (some centres not stated) | 24 | 
O=C(CSc1ncccn1)N/N=C/c1ccccc1OCc1ccccc1 | > 100 | 
CN1CCCC2C(c3ccccc3)C(C3=NCCCC3)C(c3ccccc3)CC21 (configuration not stated) | > 100 | 

system: KM12 colon; assay: NCI anticancer screen, dose series, 48 h

SMILES | TGI [µM]
C[C@]12CC[C@H]3[C@@H](CCC4=CC(=O)CC[C@@H]43)[C@@H]1CC[C@]2(O)C(N)=O | > 100
COC(=O)C1C2OC(C)(C)OC2CN1S(=O)(=O)c1ccc(C)cc1 (configuration not stated) | > 100
[O-][n+]1nc(N2CCOCC2)nc2ccccc21 | > 100
O=C1CSC(c2ccccc2)N1c1nc2cc3sc(N4C(=O)CSC4c4ccccc4)nc3cc2s1 (configuration not stated) | > 100
Cc1sc2nc(N(C)C)oc(=O)c2c1C | > 100
Cc1nc(N)c(N2CCN(S(N)(=O)=O)CC2)c(=O)[nH]1 | > 100
CC(C)OC(=O)c1ccc(NCC2=CC(=O)C=CC2=O)cc1 | 41.8
CC(C)C[C@H]1[C@@H](OCc2ccccc2)COS(=O)(=O)N1[C@H](C)c1ccccc1 | > 100
CN1CCC23c4c5ccc(Oc6nnnn6-c6ccccc6)c4OC2c2[nH]c4ccccc4c2CC3(O)C1C5 (configuration not stated) | 7.68
COC(=O)c1ccccc1/C=C1\Cc2c(C)c3c(c(C)c2C1=O)CCC3 | > 100
O=C1c2ccccc2-c2nnc(-c3ccc([N+](=O)[O-])cc3)cc21 | > 10
Cn1c(-c2cccs2)cc(-c2cccs2)c1-c1cccs1 | > 100
COc1cc2c(/C=C3/C(=O)Nc4ccc(O)cc43)c(Cl)n(Cc3ccccc3)c2cc1C | 1.35
CCSc1nnc(Sc2c3ccccc3nc3ccccc23)s1 | 77.8
O=C(CC(O)(C(F)(F)F)C(F)(F)F)C(c1ccccc1)C(O)(C(F)(F)F)C(F)(F)F (configuration not stated) | > 100
CCOC(=O)CC[C@H](N)C(=O)N[C@@H](Cc1ccc(N(CCCl)CCCl)cc1)C(=O)OCC | 11.6
CC(C)CCCC(C)[C@H]1CC[C@H]2n3c(nnc3-c3ccccc3)CCC[C@]12C (some centres not stated) | > 100
O=C(CSc1ncccn1)N/N=C/c1ccccc1OCc1ccccc1 | > 100
CN1CCCC2C(c3ccccc3)C(C3=NCCCC3)C(c3ccccc3)CC21 (configuration not stated) | > 100

system: SNB-75 CNS; assay: NCI anticancer screen, dose series, 48 h

SMILES | TGI [µM]
C[C@]12CC[C@H]3[C@@H](CCC4=CC(=O)CC[C@@H]43)[C@@H]1CC[C@]2(O)C(N)=O | > 100
COC(=O)C1C2OC(C)(C)OC2CN1S(=O)(=O)c1ccc(C)cc1 (configuration not stated) | > 100
[O-][n+]1nc(N2CCOCC2)nc2ccccc21 | > 100
O=C1CSC(c2ccccc2)N1c1nc2cc3sc(N4C(=O)CSC4c4ccccc4)nc3cc2s1 (configuration not stated) | > 92.3
Cc1sc2nc(N(C)C)oc(=O)c2c1C | > 100
Cc1nc(N)c(N2CCN(S(N)(=O)=O)CC2)c(=O)[nH]1 | > 100
CC(C)OC(=O)c1ccc(NCC2=CC(=O)C=CC2=O)cc1 | 76.3
CC(C)C[C@H]1[C@@H](OCc2ccccc2)COS(=O)(=O)N1[C@H](C)c1ccccc1 | > 100
CN1CCC23c4c5ccc(Oc6nnnn6-c6ccccc6)c4OC2c2[nH]c4ccccc4c2CC3(O)C1C5 (configuration not stated) | 7.66
COC(=O)c1ccccc1/C=C1\Cc2c(C)c3c(c(C)c2C1=O)CCC3 | > 100
O=C1c2ccccc2-c2nnc(-c3ccc([N+](=O)[O-])cc3)cc21 | > 10
Cn1c(-c2cccs2)cc(-c2cccs2)c1-c1cccs1 | > 100
COc1cc2c(/C=C3/C(=O)Nc4ccc(O)cc43)c(Cl)n(Cc3ccccc3)c2cc1C | > 100
CCSc1nnc(Sc2c3ccccc3nc3ccccc23)s1 | > 100
O=C(CC(O)(C(F)(F)F)C(F)(F)F)C(c1ccccc1)C(O)(C(F)(F)F)C(F)(F)F (configuration not stated) | 27.2
CCOC(=O)CC[C@H](N)C(=O)N[C@@H](Cc1ccc(N(CCCl)CCCl)cc1)C(=O)OCC | 4.44
CC(C)CCCC(C)[C@H]1CC[C@H]2n3c(nnc3-c3ccccc3)CCC[C@]12C (some centres not stated) | 35.3
O=C(CSc1ncccn1)N/N=C/c1ccccc1OCc1ccccc1 | 67.7
CN1CCCC2C(c3ccccc3)C(C3=NCCCC3)C(c3ccccc3)CC21 (configuration not stated) | 38

system: DU-145 prostate; assay: NCI anticancer screen, dose series, 48 h

SMILES | TGI [µM]
C[C@]12CC[C@H]3[C@@H](CCC4=CC(=O)CC[C@@H]43)[C@@H]1CC[C@]2(O)C(N)=O | > 100
COC(=O)C1C2OC(C)(C)OC2CN1S(=O)(=O)c1ccc(C)cc1 (configuration not stated) | > 100
[O-][n+]1nc(N2CCOCC2)nc2ccccc21 | > 100
O=C1CSC(c2ccccc2)N1c1nc2cc3sc(N4C(=O)CSC4c4ccccc4)nc3cc2s1 (configuration not stated) | > 100
Cc1sc2nc(N(C)C)oc(=O)c2c1C | > 100
Cc1nc(N)c(N2CCN(S(N)(=O)=O)CC2)c(=O)[nH]1 | > 100
CC(C)OC(=O)c1ccc(NCC2=CC(=O)C=CC2=O)cc1 | 35.8
CC(C)C[C@H]1[C@@H](OCc2ccccc2)COS(=O)(=O)N1[C@H](C)c1ccccc1 | > 100
CN1CCC23c4c5ccc(Oc6nnnn6-c6ccccc6)c4OC2c2[nH]c4ccccc4c2CC3(O)C1C5 (configuration not stated) | 19.6
COC(=O)c1ccccc1/C=C1\Cc2c(C)c3c(c(C)c2C1=O)CCC3 | > 100
O=C1c2ccccc2-c2nnc(-c3ccc([N+](=O)[O-])cc3)cc21 | > 10
Cn1c(-c2cccs2)cc(-c2cccs2)c1-c1cccs1 | > 100
COc1cc2c(/C=C3/C(=O)Nc4ccc(O)cc43)c(Cl)n(Cc3ccccc3)c2cc1C | 26
CCSc1nnc(Sc2c3ccccc3nc3ccccc23)s1 | 30.2
O=C(CC(O)(C(F)(F)F)C(F)(F)F)C(c1ccccc1)C(O)(C(F)(F)F)C(F)(F)F (configuration not stated) | > 100
CCOC(=O)CC[C@H](N)C(=O)N[C@@H](Cc1ccc(N(CCCl)CCCl)cc1)C(=O)OCC | 5.56
CC(C)CCCC(C)[C@H]1CC[C@H]2n3c(nnc3-c3ccccc3)CCC[C@]12C (some centres not stated) | 83
O=C(CSc1ncccn1)N/N=C/c1ccccc1OCc1ccccc1 | 96.7
